Data taken from PubChem BioAssay AID857 (Vanderbilt High Throughput Screening Facility, 2007).
Active and inactive are the calls of the source.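 How the source made its calls: active means a full or partial dose-response curve in at least two of three replicate runs; inactive means the rest.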

Biological target: D(1B) dopamine receptor (Homo sapiens) (UniProt P21918)
Assay: D5 receptor allosteric modulators, concentration-response – cell-based, HEK293, CRE-luciferase, luminescence, EC30 dopamine, selectivity assay for D1 allosteric modulator project, dose response (AID 857);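 further: HEK 293 cells expressing human D5 with a CRE-driven luciferase reporter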

Chain of D(1B) dopamine receptor (Homo sapiens) (P21918 whole entry, looked up): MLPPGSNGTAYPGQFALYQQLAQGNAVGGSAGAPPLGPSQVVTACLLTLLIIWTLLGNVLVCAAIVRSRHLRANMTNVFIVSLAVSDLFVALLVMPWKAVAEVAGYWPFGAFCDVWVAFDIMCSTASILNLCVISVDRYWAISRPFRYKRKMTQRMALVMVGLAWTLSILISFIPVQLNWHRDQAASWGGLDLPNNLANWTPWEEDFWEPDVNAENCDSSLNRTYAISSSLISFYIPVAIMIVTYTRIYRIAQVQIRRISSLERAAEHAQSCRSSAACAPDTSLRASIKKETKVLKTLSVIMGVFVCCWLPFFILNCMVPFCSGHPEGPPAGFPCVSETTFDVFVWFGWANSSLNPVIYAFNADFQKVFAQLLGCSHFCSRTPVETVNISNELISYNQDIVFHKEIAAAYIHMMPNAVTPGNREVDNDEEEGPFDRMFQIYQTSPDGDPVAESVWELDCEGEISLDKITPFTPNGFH

SMILES | outcome | EC50 [nM]
COc1ccc2[nH]c(=O)c(CN(Cc3cccs3)Cc3nnnn3C(C)(C)C)cc2c1 | inactive | –
Cn1c(=O)c2c(nc(SCCCO)n2Cc2ccccc2Cl)n(C)c1=O | inactive | –
NC(=O)c1cc(-c2ccccc2)nc(N2CCCCCC2)n1 | inactive | –
CCc1ccc2[nH]c(=O)c(CN(Cc3nnnn3C3CCCC3)C3CCCCC3)cc2c1 | inactive | –
COc1cccc(NC2=NCC(=O)N2Cc2cccs2)c1 | inactive | –
Cc1ccccc1NC(=O)c1nc[nH]c1C(=O)NCc1ccccc1 | inactive | –
COc1ccc(S(=O)(=O)Nc2ccc3c(c2)OCO3)cc1OC | inactive | –
O=C1OCCC1Sc1ncnc2sc3c(c12)CCC3 (configuration not stated) | inactive | –
N#CCCN1CCN(S(=O)(=O)c2ccc(S(=O)(=O)NC3CCCCC3)cc2)CC1 | inactive | –
CSC1=NCCN1C(=O)Cc1cccs1 | inactive | –
CCOC(=O)C1CCCN(c2nc3ccccc3nc2C(C#N)C(=O)OCC)C1 (configuration not stated) | inactive | –
Cc1ccc(CNc2nc3ccccc3n3nnnc23)cc1 | inactive | –
N#Cc1cn(-c2ccccc2)nc1-c1ccccc1 | inactive | –
c1ccc2c(c1)CCCN2c1nc2ccccc2n2cnnc12 | inactive | –
COc1c(S(=O)(=O)n2nc(C)cc2C)ccc(Cl)c1Cl | inactive | –
COC(=O)c1cccc(S(=O)(=O)N2CCC(NC(=O)NC34CC5CC(CC(C5)C3)C4)CC2)c1 | inactive | –
COc1ccc(-c2csc3nc(C)n(-n4cccc4)c(=O)c23)cc1OC | inactive | –
O=CN1Cc2[nH]c3ccccc3c2N(c2ccc(Cl)cc2)C1=O | inactive | –
COc1ccc(-c2noc(COc3ccc4ccccc4c3Br)n2)cc1OC | inactive | –
O=S1(=O)N=C(N2CCc3ccccc3C2)c2ccccc21 | inactive | –
Cc1nc(N2CCC(C(N)=O)CC2)c2nnn(Cc3ccccc3)c2n1 | inactive | –
COC(=O)c1c(-c2ccc(F)cc2)csc1NC(=O)c1ccco1 | inactive | –
Nc1nc(SCC(=O)OCc2ccccc2)[nH]c(=O)c1NC(=O)c1ccco1 | inactive | –
CCOC(=O)C1=C(C)Nc2nc(SC)nn2C1c1ccc(C(=O)OC)cc1 (configuration not stated) | inactive | –
O=c1c2ccccc2nc(SCc2cccc(F)c2)n1Cc1ccco1 | inactive | –

SMILES | outcome | EC50 [nM]
CC(C)Cn1c(=O)c(C(=O)Nc2cnccn2)c(O)c2ccccc21 | inactive | –
COc1ccc(C(=O)Nc2nnc(Cc3cccs3)s2)cc1OC | inactive | –
CCC(=O)N1CCc2cc(S(=O)(=O)NCCC(=O)NC3CCCc4ccccc43)ccc21 (configuration not stated) | inactive | –
C(=N\C(/N=C/c1ccco1)c1ccco1)/c1ccco1 | inactive | –
COC(=O)c1cc(NC(=O)CSc2nc(C)cc(=O)[nH]2)cc(C(=O)OC)c1 | inactive | –
CCOC(=O)N1CCN(S(=O)(=O)c2ccc3c(c2)CCN3C(=O)C2CCC2)CC1 | inactive | –
Brc1ccc(-c2nn3c(Cc4ccccc4)nnc3s2)o1 | inactive | –
CSc1ccc(C2C(C#N)=C(N)N(c3ccccc3)C3=C2C(=O)CCC3)cc1 (configuration not stated) | inactive | –
CCc1ccc2oc(=O)cc(CN3CCOCC3)c2c1 | inactive | –
COc1ccc(-c2noc(-c3ccco3)n2)cc1OC | inactive | –
COc1cc2[nH]c(=S)n(C3CCCC3)c(=O)c2cc1OC | inactive | –
COc1cc2c(cc1OC)C(C(=O)Nc1ccc3c(c1)OCCO3)C1c3ccccc3CCN1C2=O (configuration not stated) | inactive | –
CC(=O)c1nn(-c2cccc(Cl)c2)cc1C(=O)c1ccco1 | inactive | –
CC(C)Cn1c(-c2cccs2)nc2nc3ccccc3nc21 | inactive | –
CSc1nncc(-c2ccc(F)c(F)c2)n1 | inactive | –
Cc1ccc(-n2c(=O)cc(N3CC(C)CC(C)C3)[nH]c2=O)cc1 (configuration not stated) | inactive | –
O=C(NCc1cccs1)C1CC(c2ccccc2O)=NO1 (configuration not stated) | inactive | –
COC(=O)C(C)C1Sc2ccccc2NC1=O (configuration not stated) | inactive | –
CCOC(=O)c1c(C)c(C(=O)NCc2ccc3c(c2)OCO3)c(C)n1C | inactive | –
COc1ccc(N2C(=O)C3CCCN3C2c2ccccc2)cc1Cl (configuration not stated) | inactive | –
COc1ccc(OC)c(N2C(=O)C(Cl)=C(N3CCCCC3)C2=O)c1 | inactive | –
COC(=O)c1c(NC(=O)Cc2cccs2)sc2c1CCC(C)C2 (configuration not stated) | inactive | –
CCCc1nc2sc3ccccc3c(=O)c2c(=O)n1Cc1ccco1 | inactive | –
O=C(CCc1ccc(CCC(=O)c2cccs2)s1)c1cccs1 | inactive | –
CCOc1ccccc1C1NC(=O)NC(C)=C1C(=O)OC1CCCCC1 (configuration not stated) | inactive | –

SMILES | outcome | EC50 [nM]
CCOC(=O)C(C)Oc1cccc2c(=O)n(CC(=O)NCc3ccco3)ccc12 (configuration not stated) | inactive | –
CCCCn1c(=O)c(C(=O)Nc2cnccn2)c(O)c2ccccc21 | inactive | –
COc1ccc(OC)c(C2=NOC(C(=O)Nc3cccc(C(C)=O)c3)C2)c1 (configuration not stated) | inactive | –
COc1ccc(Cn2nnc3c(=O)[nH]c(C4CCCN(C(=O)c5ccccc5)C4)nc32)cc1 (configuration not stated) | inactive | –
COc1ccc(-c2cc(=O)oc3c(C)c(O)c(CN(C)C)cc23)cc1 | inactive | –
CC1=CC(C)(C)N=C(NC#N)N1 | inactive | –
CCn1c(=O)c(C(=O)NCc2cccnc2)c(O)c2ccccc21 | inactive | –
CCCc1nc2sc3c(SCC(=O)NCc4ccco4)ncnc3c2c2c1CCC2 | inactive | –
O=C(CSc1nc2ccccc2s1)NC(=O)NCc1ccco1 | inactive | –
CCOC(=O)c1cc2c(=O)n3ccccc3nc2n(CCCOC)c1=NC(=O)C(C)(C)C | inactive | –
CCn1nc(C(=O)OCC(=O)N2c3ccccc3CC2C)c2ccccc2c1=O (configuration not stated) | inactive | –
COc1ccc(-c2noc(CCN3C(=O)c4ccccc4C3=O)n2)cc1OC | inactive | –
C=CCn1c(=O)c2c(C)c(C)sc2n2c(Nc3ccc(OC)cc3)nnc12 | inactive | –
Cc1cccc(Cc2c(C)nc3c(C(=O)NCc4ccco4)cnn3c2C)c1 | inactive | –
Cn1cnc2c1c(=O)n(Cc1ccc(F)cc1Cl)c(=O)n2C | inactive | –
N#Cc1nc(N)nc(N(c2ccccc2)c2ccccc2)n1 | inactive | –
COC(=O)c1ccc(C(=O)OC)c(NC(=O)COC(=O)C23CC4CC(CC(O)(C4)C2)C3)c1 | inactive | –
Cc1c(-c2ccccc2)nc(N)c(C#N)c1-c1ccco1 | – | 2010
COc1ccccc1-c1nnc2n1N=C(C(C)(C)C)CS2 | inactive | –
Cc1ccc(-n2cnnn2)c2cccnc12 | inactive | –
CCCOc1ccccc1NC(=O)c1ccc(N)cc1 | inactive | –
CCC(=O)n1nc(-c2cccnc2)nc1NCc1ccc(OC)cc1 | inactive | –
CCc1nc(N)c(C#N)c(-c2ccncc2)c1C | inactive | –
C=CCn1c(=S)[nH]c2nc3c(cc2c1=O)CCCC3 | inactive | –
O=c1[nH]c2cc3c(cc2cc1C(c1nnnn1C1CCCC1)N1CCSCC1)OCCO3 (configuration not stated) | inactive | –

SMILES | outcome | EC50 [nM]
CCOc1nc(NCCc2ccc(OC)c(OC)c2)nc(NC(C)(C)CO)n1 | inactive | –
O=C(c1cccn2c(=O)c3cc(Cl)ccc3nc12)N1CCN(Cc2ccc3c(c2)OCO3)CC1 | inactive | –
COc1ncnc2c1N=C1CC(C)(C)CC(N)=C1S2 | inactive | –
NC(=O)COc1ccc(NC(=O)OCc2ccccc2)cc1 | inactive | –
N#CC1=C(N)Oc2n[nH]c(-c3cccs3)c2C1c1ccsc1 (configuration not stated) | inactive | –
N#Cc1c2c(nc(N)c1-c1ccccc1)CCCCC2 | inactive | –
CSc1oc(-c2ccco2)nc1S(=O)(=O)c1ccc(F)cc1 | inactive | –
Cc1cccc(-c2c3c(=O)n(C)c(=O)n(C)c3cn2-c2ccccc2O)c1 | inactive | –
COc1ccc2cc3c(N)nn(C(=O)Cc4ccccc4OC)c3nc2c1 | – | 635
CCOC(=O)N1CCC(NC(=O)c2cccc3c2C(=O)N(Cc2cccnc2)C3)CC1 | inactive | –
c1ccc(Cn2nnc3c(N4CCc5ccccc54)ncnc32)cc1 | inactive | –
Cc1cc(SCC(=O)N2CCC(c3noc4ccc(F)cc34)CC2)nc2ccccc12 | inactive | –
O=C1CC(c2ccsc2)c2cc3c(cc2N1)OCCO3 (configuration not stated) | inactive | –
Nc1nonc1-n1nnc(C(=O)c2ccccc2)c1-c1ccccc1 | inactive | –
COc1ccc(-c2c3c(=O)n(C)c(=O)n(C)c3cn2-c2ccccc2)cc1 | inactive | –
Cc1ccc(S(=O)(=O)N2CCN(C(=O)COC(=O)c3cc(C)oc3C)CC2)cc1 | inactive | –
CCC(=O)Nc1cccc(NC(=O)c2cc3ccccc3o2)c1 | inactive | –
CCCCCn1c(N)c(C#N)c2nc3ccccc3nc21 | inactive | –
O=C(Nc1ncnc2sc3c(c12)CCCCC3)c1ccco1 | inactive | –
Cc1cc(-n2nc(C)cc2C)nc(NS(=O)(=O)c2ccccc2)n1 | inactive | –
COCCNc1oc(-c2ccc(C)cc2)nc1C#N | inactive | –
Cc1[nH]nc2c1C(c1ccc(F)cc1)C1=C(CC(C)(C)CC1=O)N2 (configuration not stated) | inactive | –
